Where a name gives a salt, the structure may show the parent alone.

The target in one series is T1, TRPV1 receptor (Rattus norvegicus, UniProt O35433).
T1 construct: The neurons of the DRG naturally express the TRPV1 receptor; endogenous in cells; host or cells: primary culture of newborn rat dorsal root ganglion neurons
Kind of series: Inhibition of the current induced by capsaicin with regard to rat DRGs (whole cell patch clamp). It is filed as cell-based. The following applies: DRG neuron, capsaicin 1 microM response, rat DRG neurons, read-out: % Inhibition by the DRG patch technique; for inhibition at 0.01 µM: compound at 10 nM; for inhibition at 0.001 µM: compound at 1 nM. The method, then: Test of the Inhibition of the Current Induced by Capsaicin with Regard to Rat DRGs
• Primary culture of rat dorsal root ganglion (DRG) cells:
The neurons of the DRG naturally express the TRPV1 receptor.
Primary cultures of DRGs of newborn rats are prepared from one-day-old rats. Briefly, after dissection, the ganglions are trypsinized and the cells dissociated mechanically by gentle trituration. The cells are resuspended in an Eagle's basal culture medium comprising 10% of fetal calf serum, 25 mM KCl, 2 mM glutamine, 100 μg/ml of gentamicin and 50 ng/ml of NGF and then deposited on glass cover slips covered with laminin (0.25×10^6 cells per cover slip) which are subsequently placed in 12-well Corning dishes. The cells are incubated at 37° C. in a humidified atmosphere comprising 5% of CO2 and 95% of air. Cytosine β-D-arabinoside (1 μM) is added 48 h after culturing, in order to prevent the growth of non-neuronal cells. After culturing for 7-10 days, the cover slips are transferred into experimental chambers for the patch clamp studies.
The measurement chambers (volume 800 μl) comprising the cell preparation are placed on the stage of an inverted microscope (Olympus IMT2) equipped with Hoffman optics (Modulation Contrast, New York) and are observed at a magnification of 400×. The chambers are continuously perfused by gravity (2.5 ml/min) using a distributor of solutions which has 8 inlets, the single outlet of which, composed of a polyethylene tube (opening 500 μm), is placed at least 3 mm from the cell studied. The “whole cell” configuration of the patch clamp technique was used. Borosilicate glass pipettes (resistance 5-10 Mohms) are brought close to the cell using a 3D piezoelectric micromanipulator (Burleigh, PC1000). The overall currents (membrane potential set at −60 mV) are recorded with an Axopatch 1D amplifier (Axon Instruments, Foster City, Calif.) connected to a PC controlled by Pclamp8 software (Axon Instruments). The current plots are recorded on paper and simultaneously recorded digitally (sampling frequency 15 to 25 Hz) and acquired on the hard disk of the PC.
The application of a micromolar capsaicin solution produces an incoming cationic current with regard to the DRG cells (voltage set at […]). In order to minimize the desensitization of the receptors, a minimum interval of one minute between two applications of capsaicin is observed. After a control period (stabilization of the capsaicin alone response), the test compounds are applied alone at a given concentration (concentration of 10 nM or […]) for a period of time of 4 to 5 minutes, during which several capsaicin+compound tests are carried out (obtaining the maximum inhibition). The results are expressed as % of inhibition of the control capsaicin response.

The next series addresses T2, TRPV1 receptors (Mus musculus, UniProt Q704Y3).
T2 construct: from tissue; host or cells: cornea of the living mouse (in vivo)
The experiment in a line: Mouse corneal irritation test (capsaicin-induced). It is filed as in vivo. The following applies: compound 500 μM, 2 μl local application on cornea 10 minutes before 160 μM capsaicin. The method, then: Mouse Corneal Irritation Test
The irritating nature of capsaicin is easily assessed on the cornea since this organ is one of the most innervated by C fibers. In this context, according to preliminary experiments, the application of a very small amount of capsaicin (2 μl at a concentration of 160 μM) at the surface of the cornea of an animal results in a number of kinds of stereotyped behavior related to irritation which are easy to record. These include: blinking of the eye, rubbing of the instilled eye by the ipsilateral front paw, rubbing of the face with the two front paws and scratching of the ipsilateral face by the hind paw. […] Its appearance is furthermore also normal. […] It may be concluded therefrom that the duration of action of capsaicin at these doses is less than 2 minutes.
Summary of the Methodology: […]
In practice, the test product, prepared at 25 mM in DMSO and diluted for its final use in physiological saline with 10% Tween 80 to the stronger concentration of 500 μM, is administered in local application at the surface of the cornea under a volume of 2 μl, 10 minutes before the application of the capsaicin. […] During observation for 2 minutes following the instillation, the number of rubbing actions on the instilled eye by the ipsilateral front paw is counted for each animal.
For a given group, the percentage of protection is calculated as follows: […]

T1 sequence (O35433 whole entry): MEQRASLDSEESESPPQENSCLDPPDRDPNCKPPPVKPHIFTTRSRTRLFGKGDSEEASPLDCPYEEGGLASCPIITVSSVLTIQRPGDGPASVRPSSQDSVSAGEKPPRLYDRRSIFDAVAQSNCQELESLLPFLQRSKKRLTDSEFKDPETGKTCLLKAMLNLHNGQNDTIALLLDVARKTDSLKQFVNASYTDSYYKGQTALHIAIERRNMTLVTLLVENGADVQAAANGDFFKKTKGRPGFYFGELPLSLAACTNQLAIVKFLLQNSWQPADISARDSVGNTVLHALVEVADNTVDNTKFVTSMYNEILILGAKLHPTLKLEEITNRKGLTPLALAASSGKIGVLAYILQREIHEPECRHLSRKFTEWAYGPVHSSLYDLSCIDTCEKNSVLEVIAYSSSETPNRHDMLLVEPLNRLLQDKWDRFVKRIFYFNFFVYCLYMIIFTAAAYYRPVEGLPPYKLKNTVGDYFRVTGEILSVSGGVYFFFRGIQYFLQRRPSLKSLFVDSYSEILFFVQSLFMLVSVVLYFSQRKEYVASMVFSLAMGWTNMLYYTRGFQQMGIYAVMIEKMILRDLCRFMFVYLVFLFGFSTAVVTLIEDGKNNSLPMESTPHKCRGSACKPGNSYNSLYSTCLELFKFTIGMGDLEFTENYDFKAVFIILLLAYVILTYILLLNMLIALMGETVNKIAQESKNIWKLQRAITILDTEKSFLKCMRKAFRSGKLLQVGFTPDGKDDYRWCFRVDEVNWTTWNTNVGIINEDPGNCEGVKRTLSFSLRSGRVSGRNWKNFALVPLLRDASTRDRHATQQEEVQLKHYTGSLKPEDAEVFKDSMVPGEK
T2 sequence (Q704Y3 whole entry): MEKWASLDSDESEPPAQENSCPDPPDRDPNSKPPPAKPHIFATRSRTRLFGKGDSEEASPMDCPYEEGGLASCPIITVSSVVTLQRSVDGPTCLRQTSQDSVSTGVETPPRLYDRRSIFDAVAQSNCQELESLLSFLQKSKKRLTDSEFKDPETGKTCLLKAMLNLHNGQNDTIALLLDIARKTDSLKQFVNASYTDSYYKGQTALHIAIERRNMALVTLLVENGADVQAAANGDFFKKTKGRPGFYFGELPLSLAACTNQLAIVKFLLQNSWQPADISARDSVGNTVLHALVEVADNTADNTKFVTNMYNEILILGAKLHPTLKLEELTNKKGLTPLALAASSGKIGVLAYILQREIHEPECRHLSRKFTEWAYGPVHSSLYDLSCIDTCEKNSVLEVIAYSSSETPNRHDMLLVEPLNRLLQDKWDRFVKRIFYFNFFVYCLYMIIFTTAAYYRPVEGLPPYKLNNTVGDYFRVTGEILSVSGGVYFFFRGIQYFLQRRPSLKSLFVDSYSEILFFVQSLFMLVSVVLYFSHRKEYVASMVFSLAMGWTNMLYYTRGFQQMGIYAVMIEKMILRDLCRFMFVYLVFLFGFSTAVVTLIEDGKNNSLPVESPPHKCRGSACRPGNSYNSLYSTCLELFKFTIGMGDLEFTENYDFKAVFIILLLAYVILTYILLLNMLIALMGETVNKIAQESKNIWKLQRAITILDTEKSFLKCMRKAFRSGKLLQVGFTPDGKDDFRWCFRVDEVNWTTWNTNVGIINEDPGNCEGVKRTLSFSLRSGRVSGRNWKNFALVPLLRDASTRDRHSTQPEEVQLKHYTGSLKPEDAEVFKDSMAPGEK

As for `CNc1cc(C)c(NC(=O)c2cc3cc(F)ccc3n2Cc2cccc(F)c2)cn1`, the melting point – broadly, the temperature of the solid-liquid transition – lay within 215 to 217 °C.

Regarding `CC(=O)Nc1ccc(NC(=O)c2cc3ccc(C(F)(F)F)cc3n2Cc2cccc(F)c2)cn1`, the melting point was in the range of 293 to 295 °C.

In turn, `Cc1cc(NC(=O)c2cc3cc(F)ccc3n2Cc2cccc(F)c2)cnc1N(C)C` yielded a melting point of 145 to 146 °C.

`Cc1cc(N(C)C)ncc1NC(=O)c1cc2cc(F)ccc2n1Cc1cccc(F)c1` came in with a melting point of 183 to 185 °C.

For `CN(C)C1=CNN(NC(=O)c2cc3cc(F)ccc3n2Cc2cccc(F)c2)C=C1` (as salt: hydrochloride), the melting point lay in the range of 239 to 241 °C.

In turn, `CN(C)c1ccc(NC(=O)c2cc3cc(F)ccc3n2Cc2cccc(F)c2)cn1.Cl` had a melting point of 232 to 234 °C.

Compound `CN(C)c1ncc(NC(=O)c2cc3cc(F)ccc3n2Cc2cccc(F)c2)cc1C(F)(F)F` gave a melting point of 142 to 143 °C.

`CNc1ccc(NC(=O)c2cc3cc(F)ccc3n2Cc2ccncc2)cn1` returned a melting point of 220 to 222 °C.

The compound `Cc1cc(NC(=O)c2cc3cc(F)ccc3n2Cc2ccncc2)cnc1N(C)C` [Compound 19, N-[6-dimethylamino-5-methylpyridin-3-yl]-5-fluoro-1-(pyridin-4-ylmethyl)-1H-indole-2-carboxamide] displayed a melting point of 164 to 165 °C. Besides, on TRPV1 receptor, the inhibition (in general, the drop in the measured response relative to a control, in per cent) at 0.01 µM came to 33%.

For the compound `Cc1cc(N(C)C)ncc1NC(=O)c1cc2cc(F)ccc2n1Cc1ccncc1` [Compound 17, N-[6-dimethylamino-4-methylpyridin-3-yl]-5-fluoro-1-(pyridin-4-ylmethyl)-1H-indole-2-carboxamide], the melting point lay in the range of 217 to 219 °C. Further, the inhibition at 0.01 µM on TRPV1 receptor was 60%.

In turn, `CNc1ccc(NC(=O)c2cc3cc(F)ccc3n2Cc2cccc(F)c2)cn1` [Compound 1, N-[6-(methylamino)pyridin-3-yl]-5-fluoro-1-(3-fluorobenzyl)-1H-indole-2-carboxamide] gave a melting point of 225 to 227 °C. Besides, the inhibition at 0.001 µM on TRPV1 receptor came out at 53%. Further, the “% P (percentage of protection)” value at TRPV1 receptors came to 23%.

The compound `CN(C)C1=CNN(NC(=O)c2cc3ccc(C(F)(F)F)cc3n2Cc2cccc(F)c2)C=C1` came in with a melting point of 255 to 267 °C.

In turn, `CN(C)C1=CNN(NC(=O)c2cc3cc(C(F)(F)F)ccc3n2Cc2ccncc2)C=C1.Cl` had a melting point of 268 to 272 °C.

`CNc1cc(C)c(NC(=O)c2cc3cc(F)ccc3n2Cc2ccncc2)cn1` showed a melting point of 218 to 220 °C.

Consider `CN(C)c1ccc(NC(=O)c2cc3cc(C(F)(F)F)ccc3n2Cc2cccc(F)c2)cn1` [Compound 12, N-[6-(dimethylamino)pyridin-3-yl]-5-trifluoromethyl-1-(3-fluorobenzyl)-1H-indole-2-carboxamide], for which the inhibition at 0.001 µM on TRPV1 receptor was determined as 100%.

Consider `CN(C)C1=CNN(NC(=O)c2cc3cc(C(F)(F)F)ccc3n2Cc2cccc(F)c2)C=C1`, for which the melting point lay in the range of 138 to 139 °C.

Compound `CN(C)c1ncc(NC(=O)c2cc3cc(F)ccc3n2Cc2cccc(F)c2)cc1F` showed a melting point of 158 to 159 °C.

In the case of `CC(=O)Nc1ccc(NC(=O)c2cc3cc(F)ccc3n2Cc2cccc(F)c2)cn1`, the melting point fell in the range of 252 to 254 °C.

Turning to `CNc1ccc(NC(=O)c2cc3cc(F)ccc3n2Cc2cccc(F)c2)c(C)n1`, the melting point lay in the range of 229 to 230 °C.

(Values after patent US8227489B2, “N-(aminoheteroaryl)-1H-indole-2-carboxamide derivatives, preparation thereof and therapeutic use thereof” (Sanofi-Aventis, priority 2006, dated 2012).)
